Data published in ChEMBL document CHEMBL1134959, “Synthesis and testing of 2alpha-modified 1alpha,25-dihydroxyvitamin D(3) analogues with a double side chain: marked cell differentiation activity” (2002).

Assays:
HL-60 = assay: Compound was evaluated for its relative cell differentiation of human promyelocytic leukemia cells (HL-60); format: functional
[1] = target: T1, Vitamin D3 receptor (Bos taurus) (UniProt Q28037); assay: Affinity for bovine thymus vitamin D receptor
T1 sequence (whole entry): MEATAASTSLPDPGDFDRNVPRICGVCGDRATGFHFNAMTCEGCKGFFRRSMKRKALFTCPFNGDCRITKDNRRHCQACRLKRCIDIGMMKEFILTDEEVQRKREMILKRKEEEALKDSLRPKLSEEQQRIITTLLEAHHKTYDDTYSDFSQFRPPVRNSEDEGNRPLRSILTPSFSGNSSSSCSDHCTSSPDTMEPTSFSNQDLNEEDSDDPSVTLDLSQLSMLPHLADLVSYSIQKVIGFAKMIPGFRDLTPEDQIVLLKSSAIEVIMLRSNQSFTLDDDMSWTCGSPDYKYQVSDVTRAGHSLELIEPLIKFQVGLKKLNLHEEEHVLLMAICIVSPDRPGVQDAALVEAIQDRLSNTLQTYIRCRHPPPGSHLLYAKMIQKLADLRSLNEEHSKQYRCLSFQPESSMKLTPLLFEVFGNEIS

`C=C1/C(=C\C=C2/CCC[C@]3(C)[C@@H]([C@H](C)CCCC(C)(C)O)CC[C@@H]23)C[C@@H](O)C[C@@H]1O` [CALCITRIOL] showed an Activity (HL-60) of 100 and an Activity [1] of 100.
Work on `C=C1/C(=C\C=C2/CCC[C@@]3(C)C2CC[C@@H]3C(CCCC(C)(C)O)CCCC(C)(C)O)C[C@@H](O)[C@H](C)[C@@H]1O` (stereo not given in full) yielded an Activity (HL-60) of 3840 and an Activity [1] of 53.
`C=C1/C(=C\C=C2/CCC[C@@]3(C)C2CC[C@@H]3C(CCCC(C)(C)O)CCCC(C)(C)O)C[C@@H](O)[C@H](OCCCO)[C@@H]1O` (stereo not given in full) showed an Activity (HL-60) of 1920 and an Activity [1] of 36.
Compound `C=C1/C(=C\C=C2/CCC[C@@]3(C)C2CC[C@@H]3C(CCCC(C)(C)O)CCCC(C)(C)O)C[C@@H](O)C[C@@H]1O` (stereo not given in full) has an Activity (HL-60) of 1060 and an Activity [1] of 24.
For `C=C1/C(=C\C=C2/CCC[C@@]3(C)C2CC[C@@H]3C(CCCC(C)(C)O)CCCC(C)(C)O)C[C@@H](O)[C@H](CCCO)[C@@H]1O` (stereo not given in full), the Activity (HL-60) was 1280 and the Activity [1] was 57.
